Assay results reported in patent US20250034166A1, “POLYCYCLIC FUSED RING DERIVATIVES AND USE THEREOF” (Jacobio Pharmaceuticals Co., Ltd., priority 2021, published 2025).
Read-outs that look alike come from different tables or passages of the source.

What was measured:
AGS cells (K-Ras G12D) [1] = assay: Phospho-ERK1/2(THR202/TYR204) HTRF assay; format: cell-based; conditions: Homo sapiens, 2 hours incubation, read-out: p-ERK, IC50 AGS
Procedure: (§1) p-ERK (MAPK pathway) inhibition activity of each of compounds in a variety of K-Ras mutant and K-Ras WT cell lines indicated in Table 12 was evaluated. MKN-1 with K-Ras WT amplification is also a K-Ras dependent cell line.
(§2) Each of cells in culture medium was seeded in 96-well plates at density indicated in Table 16 and then put in a cell incubator to incubate overnight. The next day, the culture medium was removed and the compound diluted in assay medium was added in each well. After 2 hours incubation in a cell incubator, the assay medium in 96-well plates was removed, then 50 μL of 1× blocking reagent-supplemented lysis buffer (Cisbio) was added and the plates were incubated at 25° C. for 45 min with shaking. 10 μL of cell lysates from the 96-well plates were transferred to a 384-well plate (Greiner) containing […] HTRF® pre-mixed antibodies (Cisbio 64AERPEH). The plate was incubated 4 hours at 25° C. and then read HTRF signals on Tecan Spark multimode microplate reader. The data were analyzed using a 4-parameter logistic model to calculate IC50 values.

SW620 cells (K-Ras G12V) [2] = assay: Phospho-ERK1/2(THR202/TYR204) HTRF assay; format: cell-based; conditions: Homo sapiens, SW-620, 2 hours incubation, read-out: p-ERK, IC50 SW620
Procedure: as §1, §2

AGS cells (K-Ras G12D) [3] = assay: 2D cell growth inhibition assay (CellTiter-Glo); format: cell-based; conditions: Homo sapiens, 6 days, absolute IC50
Procedure: (§3) The cell growth inhibition activity of each of compounds was tested by performing cell growth inhibition assays on a variety of K-Ras mutant and K-Ras WT cell lines indicated in Table 14.
(§4) Each of cells in culture medium was plated in TC-treated 96-well plates at a density indicated in Table 14 and incubated in a cell incubator overnight. The next day, each of compounds was diluted in culture medium and added to the plates. After 6 days incubation in cell incubator, the cell viability was detected by CellTiter-Glo® Cell Viability Assay kit (Promega).

[4] = system: AsPC-1 cells (K-Ras G12D); assay: 2D cell growth inhibition assay (CellTiter-Glo); format: cell-based; conditions: Homo sapiens, ASPC1, AsPC-1 (G12D), 6 days, absolute IC50
Procedure: as §3, §4

SW620 cells (K-Ras G12V) [5] = assay: 2D cell growth inhibition assay (CellTiter-Glo); format: cell-based; conditions: Homo sapiens, SW-620, 6 days, absolute IC50
Procedure: as §3, §4

K-Ras G12V [6] = target: T1, K-Ras G12V (Homo sapiens, UniProt P01116, G12V); assay: biochemical
T1 sequence (P01116 1-169 isoform P01116-2 G12V): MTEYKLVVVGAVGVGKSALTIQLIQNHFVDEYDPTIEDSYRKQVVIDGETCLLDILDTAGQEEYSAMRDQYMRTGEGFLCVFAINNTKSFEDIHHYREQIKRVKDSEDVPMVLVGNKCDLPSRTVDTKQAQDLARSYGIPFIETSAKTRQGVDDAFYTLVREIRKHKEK

K-Ras G12D [7] = target: T2, K-Ras G12D (Homo sapiens, UniProt P01116, G12D); assay: biochemical
T2 sequence (P01116 1-169 isoform P01116-2 G12D): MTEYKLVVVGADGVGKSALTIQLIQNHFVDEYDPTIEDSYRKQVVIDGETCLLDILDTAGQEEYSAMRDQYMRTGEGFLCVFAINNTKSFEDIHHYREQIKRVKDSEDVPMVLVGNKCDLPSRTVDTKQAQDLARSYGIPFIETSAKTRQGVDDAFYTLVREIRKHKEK

K-Ras G12V [8] = target: T1, K-Ras G12V; assay: biochemical; remark: listed apart in the source
K-Ras G12D [9] = target: T2, K-Ras G12D; assay: biochemical; remark: listed apart in the source

Q: For `C#Cc1c(F)ccc2cc(O)cc(-c3cc4c5c(nc(OC[C@@]67CCCN6C[C@H](F)C7)nc5c3F)N3CCOCCC3CO4)c12` (some centres unmarked) [Compound 1], which IC50 (AGS cells (K-Ras G12D) [1]) is on record?
A: 16.2 nM

Q: What about the IC50 (SW620 cells (K-Ras G12V) [2]) of the same compound?
A: 38.2 nM

Q: What about the IC50 (AGS cells (K-Ras G12D) [3]) of the same compound?
A: 326 nM

Q: And the IC50 [4]?
A: 987 nM

Q: And the IC50 (SW620 cells (K-Ras G12V) [5])?
A: 100 nM

Q: What does the source list for `C#Cc1c(F)ccc2cc(O)cc(-c3nc4c5c(nc(OCC67CCCN6CC(F)C7)nc5c3F)N3CCOCCC3CO4)c12` (centres unmarked) [Compound 2]?
A: IC50 (AGS cells (K-Ras G12D) [1]): 2.33 nM; IC50 (SW620 cells (K-Ras G12V) [2]): 5.2 nM; IC50 (AGS cells (K-Ras G12D) [3]): 5.07 nM; IC50 [4]: 134 nM; IC50 (SW620 cells (K-Ras G12V) [5]): 13.1 nM

Q: What does the source list for `C#Cc1c(F)ccc2cc(O)cc(-c3nc4c5c(nc(OC[C@@]67CCCN6C[C@H](F)C7)nc5c3F)N3CCCOCC3CO4)c12` (some centres unmarked) [Compound 3]?
A: IC50 (AGS cells (K-Ras G12D) [1]): 2.02 nM; IC50 (SW620 cells (K-Ras G12V) [2]): 4.61 nM; IC50 (AGS cells (K-Ras G12D) [3]): 1.73 nM; IC50 [4]: 19.6 nM; IC50 (SW620 cells (K-Ras G12V) [5]): 3.32 nM

Q: With `CCc1c(F)ccc2cc(O)cc(-c3cc4c5c(nc(OC[C@@]67CCCN6C[C@H](F)C7)nc5c3F)N3CCOCCC3CO4)c12` (some centres unmarked) [Compound 4] as the compound, how does the IC50 (K-Ras G12V [6]) read?
A: 14.7 nM

Q: What about the IC50 (K-Ras G12D [7]) of the same compound?
A: 32.7 nM

Q: And the IC50 (K-Ras G12V [8])?
A: > 1000 nM

Q: What about the IC50 (K-Ras G12D [9]) of the same compound?
A: > 1000 nM

Q: Which results are given for `C#Cc1c(F)ccc2cc(O)cc(-c3nc4c5c(nc(OC[C@@]67CCCN6C[C@H](F)C7)nc5c3F)N3CCCOC[C@H]3CO4)c12` [Compound 5]?
A: IC50 (AGS cells (K-Ras G12D) [1]): 0.525 nM; IC50 (SW620 cells (K-Ras G12V) [2]): 1.03 nM; IC50 (AGS cells (K-Ras G12D) [3]): 0.466 nM; IC50 (SW620 cells (K-Ras G12V) [5]): 0.819 nM

Q: With `C#Cc1c(F)ccc2cc(O)cc(-c3nc4c5c(nc(OC[C@@]67CCCN6C[C@H](F)C7)nc5c3F)N3CCCOC[C@@H]3CO4)c12` [Compound 6] as the compound, how does the IC50 (AGS cells (K-Ras G12D) [1]) read?
A: 1.5 nM

Q: What about the IC50 (SW620 cells (K-Ras G12V) [2]) of the same compound?
A: 10 nM

Q: And the IC50 (AGS cells (K-Ras G12D) [3])?
A: 7.57 nM

Q: What about the IC50 [4] of the same compound?
A: 80.1 nM

Q: What about the IC50 (SW620 cells (K-Ras G12V) [5]) of the same compound?
A: 5.61 nM

Q: With `C#Cc1c(F)ccc2cc(O)cc(-c3nc4c5c(nc(OC[C@@]67CCCN6C[C@H](F)C7)nc5c3F)N3CCCOC[C@H]3CN4C)c12` [Compound 9] as the compound, how does the IC50 (AGS cells (K-Ras G12D) [1]) read?
A: 6.58 nM

Q: What about the IC50 (SW620 cells (K-Ras G12V) [2]) of the same compound?
A: 18.6 nM

Q: What about the IC50 (AGS cells (K-Ras G12D) [3]) of the same compound?
A: 6.8 nM

Q: And the IC50 [4]?
A: 64.4 nM

Q: What about the IC50 (SW620 cells (K-Ras G12V) [5]) of the same compound?
A: 7.67 nM

Q: Which IC50 (AGS cells (K-Ras G12D) [1]) does the source give for `C#Cc1c(F)ccc2cc(O)cc(-c3nc4c5c(nc(OC[C@@]67CCCN6C[C@H](F)C7)nc5c3F)N3CCOCC3CO4)c12` (some centres unmarked) [Compound 11] here?
A: 26.3 nM

Q: And the IC50 (SW620 cells (K-Ras G12V) [2])?
A: 16.8 nM

Q: What about the IC50 (AGS cells (K-Ras G12D) [3]) of the same compound?
A: 31.8 nM

Q: And the IC50 [4]?
A: 346 nM

Q: What about the IC50 (SW620 cells (K-Ras G12V) [5]) of the same compound?
A: 25 nM

Q: Which results are given for `C#Cc1c(F)ccc2cc(O)cc(-c3nc4c5c(nc(OC[C@@]67CCCN6C[C@H](F)C7)nc5c3F)N3CCOCC3CCO4)c12` (some centres unmarked) [Compound 12]?
A: IC50 (AGS cells (K-Ras G12D) [1]): 48 nM; IC50 (SW620 cells (K-Ras G12V) [2]): 128 nM; IC50 (AGS cells (K-Ras G12D) [3]): 83.4 nM; IC50 [4]: 810 nM; IC50 (SW620 cells (K-Ras G12V) [5]): 91.2 nM

Q: How did the IC50 (AGS cells (K-Ras G12D) [1]) turn out when `CCc1c(F)ccc2cc(O)cc(-c3nc4c5c(nc(OC[C@@]67CCCN6C[C@H](F)C7)nc5c3F)N3CCOCC3CO4)c12` (some centres unmarked) [Compound 14] was run?
A: 39.4 nM

Q: What about the IC50 (SW620 cells (K-Ras G12V) [2]) of the same compound?
A: 42.3 nM

Q: What about the IC50 (AGS cells (K-Ras G12D) [3]) of the same compound?
A: 105 nM

Q: And the IC50 [4]?
A: 702 nM

Q: What about the IC50 (SW620 cells (K-Ras G12V) [5]) of the same compound?
A: 23.9 nM

Q: Which results are given for `C#Cc1c(F)ccc2cc(O)cc(-c3nc4c5c(nc(OC[C@@]67CCCN6C[C@H](F)C7)nc5c3F)N3C5COCCC3(CO4)C5)c12` (some centres unmarked) [Compound 16]?
A: IC50 (K-Ras G12V [6]): 43.5 nM; IC50 (K-Ras G12D [7]): 57.4 nM; IC50 (K-Ras G12V [8]): > 1000 nM; IC50 (K-Ras G12D [9]): > 1000 nM

Q: `C#Cc1c(F)ccc2cc(O)cc(-c3nc4c5c(nc(OC[C@@]67CCCN6C[C@H](F)C7)nc5c3F)N3CCCCC3CO4)c12` (some centres unmarked) [Compound 19] was tested. Which IC50 (AGS cells (K-Ras G12D) [1]) did it give?
A: 2.32 nM

Q: And the IC50 (SW620 cells (K-Ras G12V) [2])?
A: 5.13 nM

Q: What does the source list for `C#Cc1c(F)ccc2cc(O)cc(-c3nc4c5c(nc(OC[C@@]67CCCN6C[C@H](F)C7)nc5c3F)N3CCCCC[C@H]3CO4)c12` [Compound 20]?
A: IC50 (AGS cells (K-Ras G12D) [1]): 0.691 nM; IC50 (SW620 cells (K-Ras G12V) [2]): 2.01 nM; IC50 (AGS cells (K-Ras G12D) [3]): 1.23 nM; IC50 [4]: 10.2 nM; IC50 (SW620 cells (K-Ras G12V) [5]): 1.49 nM

Q: What does the source list for `C#Cc1c(F)ccc2cc(O)cc(-c3nc4c5c(nc(OC[C@@]67CCCN6C[C@H](F)C7)nc5c3F)N3CCCC3CO4)c12` (some centres unmarked) [Compound 21]?
A: IC50 (AGS cells (K-Ras G12D) [1]): 19.7 nM; IC50 (SW620 cells (K-Ras G12V) [2]): 60.6 nM; IC50 (AGS cells (K-Ras G12D) [3]): 99 nM; IC50 [4]: 547 nM; IC50 (SW620 cells (K-Ras G12V) [5]): 35.1 nM

Q: For `C#Cc1c(F)ccc2cc(O)cc(-c3nc4c5c(nc(OC[C@@]67CCCN6C[C@H](F)C7)nc5c3F)N3CCCCCC3CO4)c12` (some centres unmarked) [Compound 22], which IC50 (AGS cells (K-Ras G12D) [1]) is on record?
A: 1.38 nM

Q: And the IC50 (SW620 cells (K-Ras G12V) [2])?
A: 3.05 nM

Q: And the IC50 (AGS cells (K-Ras G12D) [3])?
A: 2.59 nM

Q: What about the IC50 [4] of the same compound?
A: 15.6 nM

Q: And the IC50 (SW620 cells (K-Ras G12V) [5])?
A: 1.32 nM

Q: `C#Cc1c(F)ccc2cc(O)cc(-c3nc4c5c(nc(OC[C@@]67CCCN6C[C@H](F)C7)nc5c3F)N3CCCCC3CCO4)c12` (some centres unmarked) [Compound 23] was tested. Which IC50 (AGS cells (K-Ras G12D) [1]) did it give?
A: 23 nM

Q: And the IC50 (SW620 cells (K-Ras G12V) [2])?
A: 50.1 nM
